This note sets out measurements from PMC9166630, “SAR Probing of KX2-391 Provided Analogues With Juxtaposed Activity Profile Against Major Oncogenic Kinases” (Frontiers in Oncology, 2022).

Conditions in all cases: 4e 0.1 µM, HL60 lysate
The test system of assay [1] is Fyn. The assay is described as follows: PamChip tyrosine kinase microarray, Fyn. In kind it is biochemical, human. The protocol: (§1) The changes in kinase activities induced by treatment with 4e were monitored within the HL60 cell lines using PamGene’s (Hertogenbosch, Netherlands) PamChip® peptide microarray profiler, which quantifies the activities of 144 tyrosine kinases (YK) ([29], [30]) (Figure 7). Results are provided as a log fold change (LFC) heatmap and Mean Kinase Statistic. From the LFC it is apparent that compound 4e, at a concentration of 0.1 µM, induced sizable changes to the activity of several kinases within the cell signaling YK profile (Figure 7A).
(§2) An Upstream Kinase tool was used to generate a putative list of kinases responsible for phosphorylating the phospho-sites on the PamChip (Figure 7B) ([31]). It is an interpretation and is highly dependent on the contents of the underlying phosphorylation databases. A Kinase Score was used for ranking kinases based on their significance and specificity in terms of the set of peptides used for the corresponding kinase. Kinase Statistics indicates the overall change of the peptide set that represents the kinase. Kinase statistics value <0 indicates lower kinase activity in the compound spiked lysate and vice versa ([32], [33]). Table 5 lists the 20 most changed kinases within treated HL60 cell lysates by 0.1 μM 4e, ranked according to their Kinase Score.
(§3) The two multiple-kinase tests (PamChip and Phosphokinase Profiler) provided strong evidence of very minor involvement of Src in the cellular activities of 4e. However, the question must be raised about the effect of the 4e on other SRC family kinase (SFK). To address this point, we must highlight that both R&D phosphokinase profiler and PamChip feature Yes, Fgr, Lyn, Lck and Src while Fyn, Hck, Blk and Frk activities are tested in the PamChip only. The signals of SFKs in the R&D Phosphokinase Profiler were too weak to detect in both untreated (control) and 4e-treated HL60 cells. In PamChip assay, most of SFK’s were not ranked in the top 20 affected kinases (Table 5). In addition, their Specificity Score were very low (Table 6) indicating their marginal importance to the cell killing activities of 4e. Fgr kinase which ranked 7th in the list (Table 5) was the only SFK member that seems to be affected by the compound, albeit with low Specificity Score (1.03).
(§4) The compound 4e was spiked into HL60 cell lysate at different concentrations (0.001, 0.01, 0.1, 1, 10 and 50 μM). In addition, DMSO was also spiked in HL60 lysate at low concentration (2% v/v) as control. Samples were profiled on PamGene’s Tyrosine Kinase (PTK) arrays in technical replicates, covering a total of 196 phosphorylation sites. Frozen HL60 cultured cell pellet was sent to PamGene. […] Protein concentration was measured using standard Bradford assay as per PamGene SOPs. […]

Assay [2] deals with Ron. Put plainly: PamChip tyrosine kinase microarray, Ron. The assay is classed as biochemical, human. As for the experimental part: as §1, §2
(§5) The compound 4e was spiked into HL60 cell lysate at different concentrations (0.001, 0.01, 0.1, 1, 10 and 50 μM). In addition, DMSO was also spiked in HL60 lysate at low concentration (2% v/v) as control. Samples were profiled on PamGene’s Tyrosine Kinase (PTK) arrays in technical replicates, covering a total of 196 phosphorylation sites. Frozen HL60 cultured cell pellet was sent to PamGene. At PamGene, cells were lysed using a lysis buffer and proteases inhibitors cocktail. Protein concentration was measured using standard Bradford assay as per PamGene SOPs. These lysates were further used for generating the PTK activity profiles. For spiking, 4e was received as powder form and dissolved in DMSO at PamGene facility followed by storing at -20°C in small aliquots. PamGene used its in-house bioinformatics toolbox in combination with other methods to generate hypotheses of signaling pathways.

The test system of assay [3] is Lck. Put plainly: PamChip tyrosine kinase microarray, Lck. The assay is classed as biochemical, human. As for the experimental part:
as §1, §2, §3, §4

Assay [4] deals with T1, Ros (Homo sapiens, UniProt P08922).
T1 construct: endogenous in cells; host or cells: HL60 lysate
The assay is described as follows: PamChip tyrosine kinase microarray, Ros. In kind it is biochemical. As for the experimental part: as §1, §2, §5

In assay [5] the test system is Lyn. Put plainly: PamChip tyrosine kinase microarray, Lyn. In kind it is biochemical, human. As for the experimental part:
as §1, §2, §3, §4

Assay [6] concerns the target T2, EphA1 (Homo sapiens, UniProt P21709).
T2 construct: endogenous in cells; host or cells: HL60 lysate
T2 sequence (P21709 26-976): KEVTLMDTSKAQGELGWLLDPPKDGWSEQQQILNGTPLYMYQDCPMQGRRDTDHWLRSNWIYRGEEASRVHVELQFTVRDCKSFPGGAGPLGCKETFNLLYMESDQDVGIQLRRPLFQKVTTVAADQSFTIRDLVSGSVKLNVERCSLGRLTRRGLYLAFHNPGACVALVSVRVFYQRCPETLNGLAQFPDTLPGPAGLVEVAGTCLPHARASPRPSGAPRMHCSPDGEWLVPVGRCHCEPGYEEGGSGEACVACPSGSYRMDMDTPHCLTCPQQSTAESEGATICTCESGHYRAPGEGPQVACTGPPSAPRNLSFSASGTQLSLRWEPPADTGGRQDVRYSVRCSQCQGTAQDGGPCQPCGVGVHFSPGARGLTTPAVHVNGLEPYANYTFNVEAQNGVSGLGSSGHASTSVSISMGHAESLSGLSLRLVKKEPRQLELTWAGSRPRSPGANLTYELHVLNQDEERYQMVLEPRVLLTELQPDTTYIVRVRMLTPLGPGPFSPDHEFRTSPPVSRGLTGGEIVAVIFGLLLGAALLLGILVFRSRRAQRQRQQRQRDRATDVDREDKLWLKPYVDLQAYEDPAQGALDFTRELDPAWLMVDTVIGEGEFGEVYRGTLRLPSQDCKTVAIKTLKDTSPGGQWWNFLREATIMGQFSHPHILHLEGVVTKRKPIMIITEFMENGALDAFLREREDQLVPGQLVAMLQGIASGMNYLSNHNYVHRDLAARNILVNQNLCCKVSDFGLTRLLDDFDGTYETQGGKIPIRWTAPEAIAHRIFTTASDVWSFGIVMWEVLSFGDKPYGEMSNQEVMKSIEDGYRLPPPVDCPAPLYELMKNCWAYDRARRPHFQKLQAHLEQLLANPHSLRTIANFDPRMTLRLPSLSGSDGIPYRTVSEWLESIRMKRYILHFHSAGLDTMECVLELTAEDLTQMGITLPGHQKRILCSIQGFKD
Put plainly: PamChip tyrosine kinase microarray, EphA1. The assay is classed as biochemical. The protocol:
as §1, §2, §5

T1 sequence (P08922 28-2347): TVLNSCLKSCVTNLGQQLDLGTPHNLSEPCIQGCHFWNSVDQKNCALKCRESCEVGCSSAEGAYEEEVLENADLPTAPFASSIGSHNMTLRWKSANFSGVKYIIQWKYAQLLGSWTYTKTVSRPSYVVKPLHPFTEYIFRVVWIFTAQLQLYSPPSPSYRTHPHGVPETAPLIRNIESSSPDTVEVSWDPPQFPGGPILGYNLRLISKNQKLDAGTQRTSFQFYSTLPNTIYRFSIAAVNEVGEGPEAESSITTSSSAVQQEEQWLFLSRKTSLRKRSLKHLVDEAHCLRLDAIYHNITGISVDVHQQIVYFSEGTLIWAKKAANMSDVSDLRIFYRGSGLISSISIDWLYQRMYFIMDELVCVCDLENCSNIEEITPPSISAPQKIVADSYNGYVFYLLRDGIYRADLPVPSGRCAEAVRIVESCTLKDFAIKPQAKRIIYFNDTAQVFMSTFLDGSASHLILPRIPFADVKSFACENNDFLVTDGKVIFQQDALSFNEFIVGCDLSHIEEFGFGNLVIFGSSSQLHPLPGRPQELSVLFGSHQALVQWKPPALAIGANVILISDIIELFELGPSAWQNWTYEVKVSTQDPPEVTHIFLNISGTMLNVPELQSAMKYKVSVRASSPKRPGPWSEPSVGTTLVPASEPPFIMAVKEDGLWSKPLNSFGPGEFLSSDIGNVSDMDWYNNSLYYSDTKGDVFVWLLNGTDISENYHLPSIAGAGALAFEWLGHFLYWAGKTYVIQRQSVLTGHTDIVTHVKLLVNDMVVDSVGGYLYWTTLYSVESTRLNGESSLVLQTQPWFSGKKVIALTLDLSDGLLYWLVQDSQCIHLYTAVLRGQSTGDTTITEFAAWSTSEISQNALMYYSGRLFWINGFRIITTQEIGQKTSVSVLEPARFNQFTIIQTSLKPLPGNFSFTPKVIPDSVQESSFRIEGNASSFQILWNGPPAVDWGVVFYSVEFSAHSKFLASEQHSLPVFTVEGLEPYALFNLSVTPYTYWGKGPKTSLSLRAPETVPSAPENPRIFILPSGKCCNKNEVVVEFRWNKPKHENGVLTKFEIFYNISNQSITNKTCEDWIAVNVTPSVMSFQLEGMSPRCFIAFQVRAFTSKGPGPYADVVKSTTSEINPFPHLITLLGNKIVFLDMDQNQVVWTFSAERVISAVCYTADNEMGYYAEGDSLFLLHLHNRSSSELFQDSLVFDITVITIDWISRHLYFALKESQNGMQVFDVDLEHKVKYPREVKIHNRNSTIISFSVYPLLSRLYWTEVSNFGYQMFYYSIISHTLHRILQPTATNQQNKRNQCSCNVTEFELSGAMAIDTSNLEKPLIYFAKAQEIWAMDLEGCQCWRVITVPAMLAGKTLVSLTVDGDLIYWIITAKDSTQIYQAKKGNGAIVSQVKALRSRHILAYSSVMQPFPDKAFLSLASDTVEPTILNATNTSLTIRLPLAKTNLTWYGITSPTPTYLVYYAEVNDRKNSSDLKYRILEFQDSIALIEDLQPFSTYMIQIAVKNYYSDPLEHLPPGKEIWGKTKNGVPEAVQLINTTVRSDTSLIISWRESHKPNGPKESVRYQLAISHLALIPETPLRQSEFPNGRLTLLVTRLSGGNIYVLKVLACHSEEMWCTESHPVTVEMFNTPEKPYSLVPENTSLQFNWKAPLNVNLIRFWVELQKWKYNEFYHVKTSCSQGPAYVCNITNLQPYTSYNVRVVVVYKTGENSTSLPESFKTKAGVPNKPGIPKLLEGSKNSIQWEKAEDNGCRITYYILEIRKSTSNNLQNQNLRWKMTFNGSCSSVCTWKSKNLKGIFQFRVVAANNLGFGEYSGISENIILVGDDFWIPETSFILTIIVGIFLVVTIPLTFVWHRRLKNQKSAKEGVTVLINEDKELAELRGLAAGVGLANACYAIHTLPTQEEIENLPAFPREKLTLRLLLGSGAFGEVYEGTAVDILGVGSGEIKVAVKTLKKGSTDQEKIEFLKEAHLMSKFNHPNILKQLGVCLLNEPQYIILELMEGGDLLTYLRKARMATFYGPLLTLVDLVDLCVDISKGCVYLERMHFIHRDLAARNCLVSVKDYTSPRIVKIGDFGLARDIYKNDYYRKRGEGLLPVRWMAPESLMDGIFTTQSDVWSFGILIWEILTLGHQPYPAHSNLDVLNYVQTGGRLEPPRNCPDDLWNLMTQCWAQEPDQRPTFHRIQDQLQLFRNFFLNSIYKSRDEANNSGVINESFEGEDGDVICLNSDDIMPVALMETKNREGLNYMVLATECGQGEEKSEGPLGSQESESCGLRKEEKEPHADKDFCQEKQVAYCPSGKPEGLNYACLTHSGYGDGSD

Turning to `O=C(Cc1ccc(NC(=O)c2cccc(Cl)c2)cc1)NCc1ccccc1` [Compound 4e, N-(4-(2-(benzylamino)-2-oxoethyl)phenyl)-3-chlorobenzamide], the “Mean Final Score” value stood at 1.4765 in assay [1]; 1.8398 in assay [2]; 1.2290 in assay [3]; 2.0991 in assay [4]; 1.9530 in assay [5]; 1.8401 in assay [6]. Moreover, the “Mean Kinase Statistic” value in assay [1] was -0.4963; in assay [2], -0.6967; in assay [3], -0.5054; in assay [4], -0.9704; in assay [5] it was -0.5775; in assay [6] it was -0.6954. For the same compound, the “Mean Significance Score” value was 1.1307 in assay [1]; 1.0254 in assay [2]; 0.8208 in assay [3]; 0.9578 in assay [4]; 1.2715 in assay [5]; 1.1254 in assay [6]. Besides, the “Mean Specificity Score” value in assay [1] was determined as 0.3458; in assay [2], 0.8144; in assay [3] it was 0.4082; in assay [4] it was 1.1413; in assay [5], 0.6815; in assay [6], 0.7147.
